Reference: publication PMC7795354, “Development of Radiogallium-Labeled Peptides for Platelet-Derived Growth Factor Receptor β (PDGFRβ) Imaging: Influence of Different Linkers” (Molecules, 2020)
Values joined by “and” are separate entries in the source; they are usually repeats but may differ in a detail not shown here. Equal values may be shown once. Read-outs that look alike come from different tables or passages of the source. Values belong to the molecule of their own block, whether it stands above or below them. *1 amine or outer side, *2 acyl side, *3 side chain or, on linkers, in order; H or OH if unused. Where a SMILES comes first, the peptide text is derived from it. Where no end group is shown, it is not given here. [ ]: non-standard residue; d: D form. The star is where a group is joined. DOTA = O=C(O)CN1CCN(CC(=O)O)CCN(CC(=O)*)CCN(CC(=O)O)CC1; NH(CH2CH2O)4CH2CO = O=C(COCCOCCOCCOCCN[*:1])[*:2]; βAla = NCCC(=O)O

Key:
PDGFRβ = settings: cited from earlier work
[1] = In vitro stability in PBS pH 7.4; settings: 37 °C, 0.1 M PBS pH 7.4
Procedure: (§3) Briefly, the solution of radiotracers (37 kBq/well, 50 µL) in a sealed tube containing 0.1 M PBS pH 7.4 (450 µL) was incubated at 37 °C for 24 h. At 3 and 24 h after incubation, the purity of radiotracers was analyzed by RP-HPLC. Meanwhile, for stability assay in murine plasma, radiotracers were mixed in murine plasma at a ratio of 1:10. After incubation at 37 °C for 10 min and 1 h, an equivalent amount of ice-cold acetonitrile was added. After centrifugation at 1000× g at 4 °C for 10 min, the supernatant was filtered through a 0.45-µm filter followed by analyzing using RP-HPLC as described above. Then, the radiochemical purities were determined.

[2] = Octanol-water partition coefficient (log P), shake-flask; settings: n-octanol/PBS, pH 7.4
Procedure: (§4) The octanol-water partition coefficients for radiotracers were determined via the assessment of their distribution in n-octanol and PBS (pH 7.4) using shake-flask method as described previously [48]. Radioactivity of each layer was measured using auto well gamma counter (n = 4).

[3] = In vitro stability in murine plasma; settings: 37 °C
Procedure: as §3

[4] = Biodistribution in BxPC3-luc tumor-bearing mice; type: in vivo; settings: female, BALB/c nu/nu, mouse, stomach, iv, 74 kBq, total radioactivity; 1 h post-injection
[5] = test system: BxPC3-luc tumor-bearing mice; assay: Biodistribution in BxPC3-luc tumor-bearing mice; type: in vivo, BALB/c nu/nu mice; settings: 1 h post-injection, i.v.
Procedure: (§1) All animal handling procedures were approved by the Kanazawa University Animal Care Committee. Experiments with animals were conducted in accordance with the Guidelines for the Care and Use of Laboratory Animals of Kanazawa University. The animals were housed with free access to food and water at 23 °C with a 12 h light/dark schedule. Four-week-old female BALB/c nu/nu mice (12–17 g) were purchased from Japan SLC Inc. (Hamamatsu, Japan). The tumor-bearing model was prepared by subcutaneous inoculation of 1 × 10^7 BxPC3-luc cells into left shoulder of female BALB/c nu/nu mice. The biodistribution experiment was performed approximately 4–5 weeks post-inoculation.
(§2) A saline solution of [^67Ga]27 or [^67Ga]28 (74 kBq, 100 µL) was injected intravenously into the tail vein of the mice. The mice were sacrificed at 10 min post-injection for [^67Ga]27 and 1 h post-injection for [^67Ga]27 or [^67Ga]28. For in vivo blocking studies, 100 μL of a mixed saline solution of [^67Ga]27 (74 kBq) and IPLPPPRRPFFK peptide (1 mg/mouse) was injected via tile vein into the tumor-bearing mice. The mice were sacrificed at 1 h post-injection. Tissues of interest were removed and weighed. The radioactivity of the tissues was determined using an auto well gamma counter, and counts were corrected for background radiation and physical decay during counting. The data were expressed as percent injected dose per gram tissue (%ID/g).

[6] = Biodistribution in BxPC3-luc tumor-bearing mice; type: in vivo, BALB/c nu/nu mice; settings: female, BALB/c nu/nu, mouse, iv, 74 kBq, total radioactivity, 1 h post-injection; for tissue uptake at 1 h: i.v.
Procedure: as §1, §2

[7] = mouse, 1 h
Procedure: as §3

[8] = buffer
Procedure: as §3

in vitro = settings: mouse, plasma, In vitro stability in murine plasma, percentage of remained intact radiotracer
Procedure: as §3

physchem = settings: pH 7.4
Procedure: as §4

[9] = mouse, plasma, In vitro stability in murine plasma, percentage of remained intact radiotracer, 1 h

Molecule: IPLPPPSRPFFK [PDGFR-P1, linear dodecapeptide targeting PDGFRβ identified by biopanning]
- IC50 (PDGFRβ; targeting PDGFRβ): 1400 nM

Molecule: IPLPPPRRPFFK
- IC50 (PDGFRβ; affinity for PDGFRβ): 480 nM

Molecule: CC[C@H](C)[C@H](NC(=O)CN1CCN(CC(=O)O)CCN(CC(=O)O)CCN(CC(=O)O)CC1)C(=O)N1CCC[C@H]1C(=O)N[C@@H](CC(C)C)C(=O)N1CCC[C@H]1C(=O)N1CCC[C@H]1C(=O)N1CCC[C@H]1C(=O)N[C@@H](CCCNC(=N)N)C(=O)N[C@@H](CCCNC(=N)N)C(=O)N1CCC[C@H]1C(=O)N[C@@H](Cc1ccccc1)C(=O)N[C@@H](Cc1ccccc1)C(=O)N[C@@H](CCCCN)C(=O)O [[^67Ga]22, [^67Ga]Ga-DOTA-IPLPPPRRPFFK, metal not drawn] ({DOTA}-IPLPPPRRPFFK-OH)
- In vitro stability in murine plasma, percentage of remained intact radiotracer [7]: 35.2 ± 1.7%
- In vitro stability in PBS pH 7.4, percentage of remained intact radiotracer ([8]; 3 h): 95.3 ± 2.7%
- In vitro stability in PBS pH 7.4, percentage of remained intact radiotracer ([8]; 24 h): 94.1 ± 0.6%
- remaining at 1 h (in vitro): 35%
- logP (physchem): < -4

Molecule: yIPLPPPRRPFFK ([dY]IPLPPPRRPFFK) [yG2, … with tyrosine at the N-terminal for radioiodination]
- Affinity for the PDGFRβ relative to IPLPPPSRPFFKY (PDGFR-P1) (PDGFRβ; higher affinity): 16 times

Second part, the molecule after the results:

- In vitro stability in PBS pH 7.4, percentage of remained intact radiotracer ([1]; 3 h): 95.9 ± 0.7%
- In vitro stability in PBS pH 7.4, percentage of remained intact radiotracer ([1]; 24 h): 94.0 ± 0.5%
- logP [2]: < -4
- remaining at 1 h [3, 9]: 15.7 ± 2.9%
Molecule: CC[C@H](C)[C@H](NC(=O)[C@@H](C)NC(=O)[C@@H](C)NC(=O)[C@@H](C)NC(=O)CN1CCN(CC(=O)O)CCN(CC(=O)O)CCN(CC(=O)O)CC1)C(=O)N1CCC[C@H]1C(=O)N[C@@H](CC(C)C)C(=O)N1CCC[C@H]1C(=O)N1CCC[C@H]1C(=O)N1CCC[C@H]1C(=O)N[C@@H](CCCNC(=N)N)C(=O)N[C@@H](CCCNC(=N)N)C(=O)N1CCC[C@H]1C(=O)N[C@@H](Cc1ccccc1)C(=O)N[C@@H](Cc1ccccc1)C(=O)N[C@@H](CCCCN)C(=O)O [[^67Ga]23, [^67Ga]Ga-DOTA-aaa-IPLPPPRRPFFK, metal not drawn] ({DOTA}-[dA][dA][dA]IPLPPPRRPFFK-OH)

- In vitro stability in PBS pH 7.4, percentage of remained intact radiotracer ([1]; 3 h): 96.9 ± 0.2%
- In vitro stability in PBS pH 7.4, percentage of remained intact radiotracer ([1]; 24 h): 94.3 ± 0.3%
- logP [2]: < -4
- In vitro stability in murine plasma, percentage of remained intact radiotracer ([3]; 1 h, 60 min): 80.1 ± 0.8%
- remaining at 10 min ([3]; mouse, plasma, In vitro stability in murine plasma, percentage of remained intact radiotracer, 10 min): 96.2 ± 1.1%
- remaining at 1 h [3, 9]: > 75%
- tissue uptake dose at 1 h [4]: 0.01 %ID
- Biodistribution, Brain [5]: 0.00 (0.00) %injected dose/gram tissue
- Tumor/Blood ratio [5]: 2.05 and 2.05 ± 0.77
- tissue uptake at 1 h ([6]; blood, read-out: Biodistribution, Blood): 0.12 %ID/g
- tissue uptake at 1 h ([6]; bone, read-out: Biodistribution, Bone): 0.1 %ID/g
- tissue uptake at 1 h ([6]; heart, read-out: Biodistribution, Heart): 0.03 %ID/g
- tissue uptake at 1 h ([6]; BxPC3-luc tumor, read-out: Biodistribution, Tumor): 0.25 %ID/g
- tissue uptake at 1 h ([6]; kidney, read-out: Biodistribution, Kidney): 2.96 %ID/g
- tissue uptake at 1 h ([6]; large intestine, read-out: Biodistribution, Large intestine): 0.11 %ID/g
- tissue uptake at 1 h ([6]; liver, read-out: Biodistribution, Liver): 0.2 %ID/g
- tissue uptake at 1 h ([6]; lung, read-out: Biodistribution, Lung): 0.18 %ID/g
- tissue uptake at 1 h ([6]; muscle, read-out: Biodistribution, Muscle): 0.03 %ID/g
- tissue uptake at 1 h ([6]; pancreas, read-out: Biodistribution, Pancreas): 0.07 %ID/g
- tissue uptake at 1 h ([6]; small intestine, read-out: Biodistribution, Small intestine): 0.34 %ID/g
- tissue uptake at 1 h ([6]; spleen, read-out: Biodistribution, Spleen): 0.07 %ID/g
- tissue to tissue ratio at 1 h ([6]; tumor/blood): 2.05
Molecule: CC[C@H](C)[C@H](NC(=O)COCCOCCOCCOCCNC(=O)CN1CCN(CC(=O)O)CCN(CC(=O)O)CCN(CC(=O)O)CC1)C(=O)N1CCC[C@H]1C(=O)N[C@@H](CC(C)C)C(=O)N1CCC[C@H]1C(=O)N1CCC[C@H]1C(=O)N1CCC[C@H]1C(=O)N[C@@H](CCCNC(=N)N)C(=O)N[C@@H](CCCNC(=N)N)C(=O)N1CCC[C@H]1C(=O)N[C@@H](Cc1ccccc1)C(=O)N[C@@H](Cc1ccccc1)C(=O)N[C@@H](CCCCN)C(=O)O [[^67Ga]28, [^67Ga]Ga-DOTA-EG4-IPLPPPRRPFFK, metal not drawn] ({DOTA}-[NH(CH2CH2O)4CH2CO]IPLPPPRRPFFK-OH)

- In vitro stability in PBS pH 7.4, percentage of remained intact radiotracer ([1]; 3 h): 96.9 ± 0.3%
- In vitro stability in PBS pH 7.4, percentage of remained intact radiotracer ([1]; 24 h): 95.4 ± 0.2%
- logP [2]: < -4
- remaining at 1 h [3, 9]: 33.1 ± 5.7%
Molecule: CC[C@H](C)[C@H](NC(=O)CCNC(=O)CCNC(=O)CCNC(=O)CCNC(=O)CN1CCN(CC(=O)O)CCN(CC(=O)O)CCN(CC(=O)O)CC1)C(=O)N1CCC[C@H]1C(=O)N[C@@H](CC(C)C)C(=O)N1CCC[C@H]1C(=O)N1CCC[C@H]1C(=O)N1CCC[C@H]1C(=O)N[C@@H](CCCNC(=N)N)C(=O)N[C@@H](CCCNC(=N)N)C(=O)N1CCC[C@H]1C(=O)N[C@@H](Cc1ccccc1)C(=O)N[C@@H](Cc1ccccc1)C(=O)N[C@@H](CCCCN)C(=O)O [[^67Ga]26, [^67Ga]Ga-DOTA-ββββ-IPLPPPRRPFFK, metal not drawn] ({DOTA-βAla-βAla-βAla-βAla}-IPLPPPRRPFFK-OH)

- In vitro stability in PBS pH 7.4, percentage of remained intact radiotracer ([1]; 3 h): 94.2 ± 1.7%
- In vitro stability in PBS pH 7.4, percentage of remained intact radiotracer ([1]; 24 h): 93.0 ± 0.4%
- logP [2]: < -4
- remaining at 1 h [3, 9]: 26.2 ± 6.7%
Molecule: CC[C@H](C)[C@H](NC(=O)CCNC(=O)CCNC(=O)CN1CCN(CC(=O)O)CCN(CC(=O)O)CCN(CC(=O)O)CC1)C(=O)N1CCC[C@H]1C(=O)N[C@@H](CC(C)C)C(=O)N1CCC[C@H]1C(=O)N1CCC[C@H]1C(=O)N1CCC[C@H]1C(=O)N[C@@H](CCCNC(=N)N)C(=O)N[C@@H](CCCNC(=N)N)C(=O)N1CCC[C@H]1C(=O)N[C@@H](Cc1ccccc1)C(=O)N[C@@H](Cc1ccccc1)C(=O)N[C@@H](CCCCN)C(=O)O [[^67Ga]25, [^67Ga]Ga-DOTA-ββ-IPLPPPRRPFFK, metal not drawn] ({DOTA-βAla-βAla}-IPLPPPRRPFFK-OH)

- In vitro stability in PBS pH 7.4, percentage of remained intact radiotracer ([1]; 3 h): 96.3 ± 1.1%
- In vitro stability in PBS pH 7.4, percentage of remained intact radiotracer ([1]; 24 h): 94.0 ± 0.5%
- logP [2]: < -4
- remaining at 1 h [3, 9]: 41.4 ± 2.5%
Molecule: CC[C@H](C)[C@H](NC(=O)[C@@H](C)NC(=O)[C@@H](C)NC(=O)[C@@H](C)NC(=O)[C@@H](C)NC(=O)[C@@H](C)NC(=O)CN1CCN(CC(=O)O)CCN(CC(=O)O)CCN(CC(=O)O)CC1)C(=O)N1CCC[C@H]1C(=O)N[C@@H](CC(C)C)C(=O)N1CCC[C@H]1C(=O)N1CCC[C@H]1C(=O)N1CCC[C@H]1C(=O)N[C@@H](CCCNC(=N)N)C(=O)N[C@@H](CCCNC(=N)N)C(=O)N1CCC[C@H]1C(=O)N[C@@H](Cc1ccccc1)C(=O)N[C@@H](Cc1ccccc1)C(=O)N[C@@H](CCCCN)C(=O)O [[^67Ga]24, [^67Ga]Ga-DOTA-aaaaa-IPLPPPRRPFFK, metal not drawn] ({DOTA}-[dA][dA][dA][dA][dA]IPLPPPRRPFFK-OH)
